Results: patent publication US20250115926A1, “DEREGULATED DHS AND TYRA ENZYMES OF GRASSES ENABLE EFFICIENT PRODUCTION OF BOTH TYROSINE AND PHENYLALANINE” (Wisconsin Alumni Research Foundation, priority 2023, published 2025)

How the values were obtained:
[1] = target: T1, Brachypodium distachyon BdTyrA1, SEQ ID NO: 33, recombinant (Brachypodium distachyon, UniProt A0A2K2DMR9); assay: TyrA arogenate dehydrogenase kinetics and tyrosine inhibition (340 nm); type: biochemical
T1 construct: from genomic DNA
T1 sequence (A0A2K2DMR9 539-925): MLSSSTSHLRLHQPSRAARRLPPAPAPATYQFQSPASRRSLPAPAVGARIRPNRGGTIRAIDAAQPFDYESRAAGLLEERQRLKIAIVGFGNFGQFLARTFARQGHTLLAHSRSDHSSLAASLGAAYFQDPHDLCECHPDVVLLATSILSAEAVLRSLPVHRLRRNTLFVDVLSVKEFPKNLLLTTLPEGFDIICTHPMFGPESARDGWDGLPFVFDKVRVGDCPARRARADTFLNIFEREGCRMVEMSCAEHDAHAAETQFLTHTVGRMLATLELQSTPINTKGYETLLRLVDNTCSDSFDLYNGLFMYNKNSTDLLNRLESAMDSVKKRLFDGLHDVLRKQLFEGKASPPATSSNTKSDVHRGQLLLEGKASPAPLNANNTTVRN
Text: (§1) Next, to study the biochemical properties of grass TyrA enzymes, we generated and characterized recombinant purified TyrA proteins from Brachypodium (BdTyrA) and Sorghum (SbTyrA), two distantly related grass species^43, 44. Whereas TyrA enzymes from dicot plants are generally NADP^+-dependent arogenate dehydrogenases^20, 39, 45, except for NADP^+-prephenate dehydrogenases in the legume family^40, 46, previous reports on the substrate preference of grass TyrA enzymes are inconclusive^17, 19. […] NAD^+-prephenate dehydrogenase activity was absent in all cases, ruling out a significant contamination of the enzyme preparations with the TyrA enzyme from E. coli^47.48.

[2] = target: T2, Sorghum bicolor SbTyrA1, SEQ ID NO: 39, recombinant (Sorghum bicolor, UniProt A0A194YLK4); assay: as above; type: biochemical
T2 construct: from genomic DNA
T2 sequence (A0A194YLK4 475-836): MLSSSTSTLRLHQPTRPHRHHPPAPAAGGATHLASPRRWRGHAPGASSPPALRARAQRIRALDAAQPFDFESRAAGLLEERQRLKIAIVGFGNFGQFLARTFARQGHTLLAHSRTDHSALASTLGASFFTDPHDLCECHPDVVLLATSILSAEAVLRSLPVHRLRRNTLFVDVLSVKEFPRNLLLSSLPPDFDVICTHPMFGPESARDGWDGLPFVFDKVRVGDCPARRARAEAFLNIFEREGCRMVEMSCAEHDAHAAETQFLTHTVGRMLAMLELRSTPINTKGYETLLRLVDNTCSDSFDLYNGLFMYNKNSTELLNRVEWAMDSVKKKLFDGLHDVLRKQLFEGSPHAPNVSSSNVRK
Text: as §1

[3] = target: T3, Sorghum bicolor SbTyrAnc (non-canonical TyrA), SEQ ID NO: 43, recombinant (Sorghum bicolor, UniProt C5Z447); assay: as above; type: biochemical
T3 construct: from cDNA
T3 sequence (C5Z447 56-382): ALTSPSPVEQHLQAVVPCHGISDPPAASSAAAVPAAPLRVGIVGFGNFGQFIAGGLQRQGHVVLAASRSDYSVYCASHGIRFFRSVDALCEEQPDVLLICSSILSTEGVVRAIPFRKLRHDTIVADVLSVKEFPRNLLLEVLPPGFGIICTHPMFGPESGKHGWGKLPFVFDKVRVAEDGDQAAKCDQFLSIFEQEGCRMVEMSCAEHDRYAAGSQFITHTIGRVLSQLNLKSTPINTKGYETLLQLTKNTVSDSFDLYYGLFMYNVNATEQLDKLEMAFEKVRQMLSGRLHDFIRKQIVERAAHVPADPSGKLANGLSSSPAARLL
Text: as §1

[4] = target: Brachypodium distachyon BdDHS1a, SEQ ID NO: 1, recombinant (Brachypodium distachyon, UniProt I1GSB3); assay: DHS activity: kinetics and effector inhibition; details: read-out: inhibition at 0.5 mM
Text: (§2) To examine their functional properties, the recombinant DHS enzymes of Brachypodium were produced and characterized in vitro.
(§3) As recent studies have shown that plant DHS enzymes are feedback-inhibited by multiple effector molecules^15, 16, we tested the effect of AAAs and another 14 related metabolites, including various intermediates of the shikimate pathway and the pathways downstream of AAAs, on Brachypodium DHS enzymes.
(§4) The DHS assay for UHPLC-MS quantification was set up using the same settings as described in the previous paragraph for the UV-based DHS assay, which guaranteed at least 10 minutes of reaction linearity. After a 10-minute incubation, 20 μL of the reactions (out of a total volume of 50 μL) were mixed into 80 μL of methanol, vortexed and transferred to vials for injection. Analysis of DAHP by UHPLC-MS was conducted using the same chromatographic settings as described for the UHPLC-MS analysis of soluble metabolites and compared with an authentic DAHP standard (Sta. Cruz biotechnology, cat. no. sc-216432).

[5] = target: Brachypodium distachyon BdDHS1b, SEQ ID NO: 3, recombinant (Brachypodium distachyon, UniProt I1H4W3); assay: DHS activity: kinetics and effector inhibition; type: biochemical; details: read-out: inhibition at 0.5 mM
Text: as §2, §3, §4

[6] = target: Brachypodium distachyon BdDHS2, SEQ ID NO: 5, recombinant (Brachypodium distachyon, UniProt I1I809); assay: DHS activity: kinetics and effector inhibition; type: biochemical; details: read-out: inhibition at 0.5 mM
Text: as §2, §3, §4

[7] = system: recombinant Sorghum DHS enzymes; assay: DHS activity: effector inhibition; type: biochemical, Sorghum bicolor; details: 0.5 mM (FIG. 17)
Experimental: In contrast, BdDHS1b was not inhibited by arogenate even up to 2.5 mM. In fact, DHS1b activity increased in the presence of high concentrations of arogenate (FIG. 4F), likely due to high concentrations of contaminant NaCl present in the arogenate preparation (FIG. 16). Under acidic conditions, arogenate is known to undergo a spontaneous dehydration and decarboxylation into […]. […] Like in Brachypodium DHS enzymes, 0.5 mM arogenate inhibited SbDHS1a and SbDHS2 at ˜50% and ˜40%, respectively, but had no effect on SbDHS1b.

grass DHS enzymes = assay: DHS activity: effector inhibition; type: biochemical; details: 0.5 mM (FIGS. 4, 15, 17)
Experimental: as §3, §4

Brachypodium distachyon BdDHS2, SEQ ID NO: 5, recombinant, sequence (I1I809 31-503): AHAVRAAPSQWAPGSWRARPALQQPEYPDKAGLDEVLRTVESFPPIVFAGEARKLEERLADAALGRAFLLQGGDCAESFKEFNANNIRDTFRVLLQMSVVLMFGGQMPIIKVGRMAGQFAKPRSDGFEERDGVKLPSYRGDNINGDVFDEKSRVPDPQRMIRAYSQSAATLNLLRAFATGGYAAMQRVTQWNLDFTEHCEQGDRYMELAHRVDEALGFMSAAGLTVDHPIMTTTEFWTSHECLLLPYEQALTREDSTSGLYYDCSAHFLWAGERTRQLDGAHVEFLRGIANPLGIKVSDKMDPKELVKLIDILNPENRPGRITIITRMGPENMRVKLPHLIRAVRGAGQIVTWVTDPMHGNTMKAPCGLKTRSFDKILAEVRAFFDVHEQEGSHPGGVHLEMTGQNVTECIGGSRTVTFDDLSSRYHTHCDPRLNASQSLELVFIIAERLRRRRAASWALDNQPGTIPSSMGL
Brachypodium distachyon BdDHS1a, SEQ ID NO: 1, recombinant, sequence (I1GSB3 46-537): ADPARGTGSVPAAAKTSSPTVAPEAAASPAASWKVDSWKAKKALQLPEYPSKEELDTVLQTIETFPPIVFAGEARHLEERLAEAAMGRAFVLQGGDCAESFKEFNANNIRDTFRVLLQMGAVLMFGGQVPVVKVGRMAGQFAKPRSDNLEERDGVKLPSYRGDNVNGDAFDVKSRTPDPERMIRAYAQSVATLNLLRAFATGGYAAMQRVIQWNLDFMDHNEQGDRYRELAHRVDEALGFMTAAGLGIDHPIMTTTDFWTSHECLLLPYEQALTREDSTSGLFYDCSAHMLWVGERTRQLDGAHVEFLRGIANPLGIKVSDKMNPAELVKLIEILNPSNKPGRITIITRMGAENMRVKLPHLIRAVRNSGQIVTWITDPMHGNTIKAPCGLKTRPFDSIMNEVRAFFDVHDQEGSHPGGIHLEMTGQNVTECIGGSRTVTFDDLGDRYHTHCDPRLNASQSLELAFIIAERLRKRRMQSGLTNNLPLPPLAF
Brachypodium distachyon BdDHS1b, SEQ ID NO: 3, recombinant, sequence (I1H4W3 37-542): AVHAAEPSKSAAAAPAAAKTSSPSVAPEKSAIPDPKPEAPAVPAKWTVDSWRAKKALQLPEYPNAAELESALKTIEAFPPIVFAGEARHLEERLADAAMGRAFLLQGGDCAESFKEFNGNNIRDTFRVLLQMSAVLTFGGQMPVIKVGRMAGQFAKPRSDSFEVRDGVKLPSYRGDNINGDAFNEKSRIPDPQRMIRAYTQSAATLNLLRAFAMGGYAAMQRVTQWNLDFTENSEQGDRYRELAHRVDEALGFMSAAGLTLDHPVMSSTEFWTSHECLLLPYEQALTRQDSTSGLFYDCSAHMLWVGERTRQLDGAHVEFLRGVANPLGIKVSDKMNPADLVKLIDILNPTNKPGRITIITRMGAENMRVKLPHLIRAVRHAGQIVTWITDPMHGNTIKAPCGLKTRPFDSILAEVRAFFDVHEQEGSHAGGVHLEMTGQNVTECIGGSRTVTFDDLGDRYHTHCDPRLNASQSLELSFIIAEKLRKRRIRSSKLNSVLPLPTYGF

SMILES: N[C@@H](Cc1ccc(O)cc1)C(=O)O [tyrosine]
- Ki [1]: 46 ± 3 µM
- activity at 200 μM of tyrosine ([1]; 200 μM tyrosine): fully inactive
- mode of feedback inhibition by tyrosine ([1]; FIG. 12): competitive
- IC50 ([1]; IC50 (tyrosine), 0.5 mM arogenate, 1 mM NADP^+): 66 ± 2 µM
- IC50 [2]: 71 µM
- Ki [2]: 53 ± 10 µM
- IC50 [3]: 406 ± 85 µM
- Ki [3]: 137 ± 44 µM
- inhibition at 500 µM [4]: ~25%
- inhibition at 500 µM [5]: ~10%
- inhibition at 500 µM [6]: ~10%
- inhibition at 0.5 mM [7]: no strong inhibition
- effect on grass DHS at 0.5 mM (grass DHS enzymes): little effect
